The test system of experiment [1] is MCP-1 production by THP-1 cells. The experiment is described as follows: MCP-1 production by macrophages. The class given is cell-based, human. As to conditions: read-out: IC50 MCP-1 production. The protocol: (§1) The human macrophage cell line, THP-1 was plated in a 12 well plate such that each well contains 1×10^6 cells in 2 ml of media containing 10% FCS. Opsonized zymosan was prepared by resuspending 20 mg of zymosan A in 2 ml of ddH2O and homogenizing until a uniform suspension was obtained. Homogenized zymosan was pelleted at 250 g and resuspended in 4 ml of human serum for a final concentration of 5 mg/ml and incubated in a 37° C. water bath for 20 minutes to enable opsonization. Geldanamycin was prepared in DMSO at a concentration of 10^−2 M and serially diluted 10-fold to give a range of stock concentrations (10^−8 M to 10^−2 M).
THP-1 cells were stimulated to produce MCP-1 by the addition of 1 mg/ml opsonized zymosan. […] was added to THP-1 cells by directly adding DMSO stock solutions, prepared earlier, at a 1/1000 dilution, to each well. Each drug concentration was tested in triplicate wells. Plates were incubated at 37° C. for 24 hours.
After a 24-hour stimulation, supernatants were collected to quantify MCP-1 production. MCP-1 concentrations in the supernatants were determined by ELISA using recombinant human MCP-1 to obtain a standard curve. A 96-well MaxiSorb plate was coated with 100 μL of anti-human MCP-1 Capture Antibody diluted in Coating Buffer (0.1M sodium carbonate pH 9.5) overnight at 4° C. The dilution of Capture Antibody used was lot-specific and was determined empirically. Capture antibody was then aspirated and the plate washed 3 times with Wash Buffer (PBS, 0.05% TWEEN-20). Plates were blocked for 1 hour at room temperature with 200 μL/well of Assay Diluent (PBS, 10% FCS pH 7.0). After blocking, plates were washed 3 times with Wash Buffer. […] Sample supernatants and standards were assayed in triplicate and were incubated at room temperature for 2 hours after addition to the plate coated with Capture Antibody. The plates were washed 5 times and incubated with 100 μL of Working Detector (biotinylated anti-human MCP-1 detection antibody+avidin-HRP) for 1 hour at room temperature. Following this incubation, the plates were washed 7 times and 100 μL of Substrate Solution (tetramethylbenzidine, H2O2) was added to plates and incubated for 30 minutes at room temperature. […] Mean absorbance was determined from triplicate data readings and the mean background was subtracted. MCP-1 concentration values were obtained from the standard curve.

Experiment [2] deals with IL-8 production by THP-1 cells. The experiment in a line: IL-8 production by macrophages. The class given is cell-based, human. The note with it: THP-1 cells stimulated with opsonized zymosan, 24 hours, read-out: IC50 IL-8 production. As to the method:
as §1, with “g,” for “g and”, “mg/ml,” for “mg/ml”
THP-1 cells were stimulated to produce IL-8 by the addition of 1 mg/ml opsonized zymosan. Geldanamycin was added to THP-1 cells by directly adding DMSO stock solutions, prepared earlier, at a 1/1000 dilution, to each well. Each drug concentration was tested in triplicate wells. Plates were incubated at 37° C. for 24 hours.
After a 24-hour stimulation, supernatants were collected to quantify IL-8 production. IL-8 concentrations in the supernatants were determined by ELISA using recombinant human IL-8 to obtain a standard curve. A 96-well MAXISORB plate was coated with 100 μL of anti-human IL-8 Capture Antibody diluted in Coating Buffer (0.1M sodium carbonate pH 9.5) overnight at 4° C. The dilution of Capture Antibody used was lot-specific and was determined empirically. Capture antibody was then aspirated and the plate washed 3 times with Wash Buffer (PBS, 0.05% TWEEN-20). Plates were blocked for 1 hour at room temperature with 200 μL/well of Assay Diluent (PBS, 10% FCS pH 7.0). After blocking, plates were washed 3 times with Wash Buffer. Standards and sample dilutions were prepared as follows: (a) sample supernatants were diluted 1/100 and 1/1000; (b) recombinant human IL-8 was prepared at 200 pg/ml and serially diluted to yield as standard curve of 3.1 pg/ml to 200 pg/ml Sample supernatants and standards were assayed in triplicate and were incubated at room temperature for 2 hours after addition to the plate coated with Capture Antibody The plates were washed 5 times and incubated with 100 μL of Working Detector (biotinylated anti-human IL-8 detection antibody+avidin-HRP) for 1 hour at room temperature. Following this incubation, the plates were washed 7 times and 100 μL of Substrate Solution (Tetramethylbenzidine, H2O2) was added to plates and incubated for 30 minutes at room temperature. Stop Solution (2 NH2SO4) was then added to the wells and a yellow color reaction was read at 450 nm with A correction at 570 nm. Mean absorbance was determined from triplicate data readings and the mean background was subtracted. IL-8 concentration values were obtained from the standard curve. […] The IC50 values for the following additional compounds were determined using this assay: IC50 (nM): 17-AAG, 56; mycophenolic acid, 549; resveratrol, 507; rapamycin, 4; 41; SP600125, 344; halofuginone, 641; D-mannose-6-phosphate, 220; epirubicin hydrochloride, 654; topotemay, 257; mithramycin, 33; daunorubicin, 421; celastrol, 490; chromomycin A3, 36

The test system of experiment [3] is Smooth muscle cells. The experiment is described as follows: Proliferation of smooth muscle cells. The class given is cell-based. The note with it: 72 hours, CYQUANT; read-out: IC50 proliferation of smooth muscle cells. The protocol: Smooth muscle cells at 70-90% confluency were trypsinized, replated at 600 cells/well in media in 96-well plates and allowed to attachment overnight. Paclitaxel was prepared in DMSO at a concentration of 10^−2 M and diluted 10-fold to give a range of stock concentrations (10^−8 M to 10^−2 M). […] Each drug concentration was tested in triplicate wells. Plates containing cells and paclitaxel were incubated at 37° C. for 72 hours.
To terminate the assay, the media was removed by gentle aspiration A 1/400 dilution of CYQUANT 400×GR dye indicator (Molecular Probes; Eugene, Oreg.) was added to 1× Cell Lysis buffer, and 200 μL of the mixture was added to the wells of the plate. Plates were incubated at room temperature, protected from light for 3-5 minutes.

Experiment [4] has as its system IL-1β production by THP-1 cells. The experiment in a line: IL-1β production by macrophages. The class given is cell-based, human. As to conditions: read-out: IC50 IL-1β production.
For experiment [5], the system named is human fibroblasts. The experiment in a line: Cell proliferation of fibroblasts. The class given is cell-based. As to conditions: Fibroblast, 72 hours, CYQUANT, read-out: IC50 cell proliferation of fibroblasts. In outline:
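Human fibroblasts plated at 600 cells/well, attached overnight, then exposed to drug in triplicate for 72 h at 37°C. Cell content read with CYQUANT GR dye in lysis buffer after 3-5 min at room temperature.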

Experiment [6] relates to TNFα production by THP-1 cells. The experiment is described as follows: TNF-alpha production by macrophages. The class given is cell-based, human. As to conditions: read-out: IC50 TNFα production. The protocol:
The human macrophage cell line, THP-1 was plated in a 12-well plate such that each well contains 1×10^6 cells in 2 ml of media containing 10% FCS. Opsonized zymosan was prepared by resuspending 20 mg of zymosan A in 2 ml of ddH2O and homogenizing until a uniform suspension was obtained. Homogenized zymosan was pelleted at 250 g and resuspended in 4 ml of human serum for a final concentration of 5 mg/ml and incubated in a 37° C. water bath for 20 minutes to enable opsonization.
THP-1 cells were stimulated to produce TNFα by the addition of 1 mg/ml opsonized zymosan. […] Each drug concentration was tested in triplicate wells. Plates were incubated at 37° C. for 24 hours.
After a 24-hour stimulation, supernatants were collected to quantify TNFα production. TNFα concentrations in the supernatants were determined by ELISA using recombinant human TNFα to obtain a standard curve A 96-well MaxiSorb plate was coated with 100 μL of anti-human TNFα Capture Antibody diluted in Coating Buffer (0.1M sodium carbonate pH 9 5) overnight at 4° C. The dilution of Capture Antibody used was lot-specific and was determined empirically. Capture antibody was then aspirated and the plate washed 3 times with Wash Buffer (PBS, 0.05% TWEEN-20) Plates were blocked for 1 hour at room temperature with 200 μL/well of Assay Diluent (PBS, 10% FCS pH 7.0). After blocking, plates were washed 3 times with Wash Buffer. […] Sample supernatants and standards were assayed in triplicate and were incubated at room temperature for 2 hours after addition to the plate coated with Capture Antibody. The plates were washed 5 times and incubated with 100 μL of Working Detector (biotinylated anti-human TNFα detection antibody+avidin-HRP) for 1 hour at room temperature. Following this incubation, the plates were washed 7 times and 100 μL of Substrate Solution (tetramethylbenzidine, H2O2) was added to plates and incubated for 30 minutes at room temperature. […] Mean absorbance was determined from triplicate data readings and the mean background was subtracted. TNFα concentration values were obtained from the standard curve.

The mark [7] stands for this setting: THP-1 cells stimulated with opsonized zymosan, 24 hours.
Where [8] appears, read: Homo sapiens, THP-1 cells stimulated with opsonized zymosan, 24 hours.

Counter-ions that a name gives are not always drawn. Like-named read-outs stand apart in the source and are kept apart here.

On to `C=CCNC1=C2C[C@@H](C)C[C@H](OC)[C@H](O)[C@@H](C)/C=C(\C)[C@H](OC(N)=O)[C@@H](OC)/C=C\C=C(/C)C(=O)NC(=CC1=O)C2=O` [17-AAG, 17-allylaminogeldanamycin], for which the IC50 in experiment [1] (setting [7]) is 135 nM; in experiment [2] it was 56 nM; in experiment [3] it was 47 nM.

For `O=C[C@@H](O)[C@@H](O)[C@H](O)[C@H](O)COP(=O)(O)O` [D-mannose-6-phosphate], the IC50 in experiment [2] (Homo sapiens) amounted to 220 nM.

Consider `C[C@H](NC(=O)C(=O)Nc1ccccc1C(C)(C)C)C(=O)N[C@@H](CC(=O)O)C(=O)COc1c(F)c(F)cc(F)c1F` [IDN-6556], for which, in experiment [4] (setting [8]), the IC50 is 642 nM.

Turning to `Oc1c2ccccc2c2c3c(cccc13)N=N2` [SP600125], the values for the IC50 in experiment [5] and in experiment [2] (Homo sapiens) were 1200 to 10000 nM and 344 nM, respectively.

Consider `COc1ccc(C[C@H]2NC[C@H](O)[C@H]2OC(C)=O)cc1` [anisomycin], for which the IC50 was 127 nM in experiment [4] (setting [7]), 71 nM in experiment [1] (setting [7]) and 276 nM in experiment [3].

`CO[C@@H]1[C@H](O)C[C@@H](O[C@@H]2C[C@H](Oc3cc4cc5c(c(O)c4c(O)c3C)C(=O)[C@@H](O[C@H]3C[C@@H](O[C@H]4C[C@@H](O[C@H]6C[C@](C)(O)[C@@H](OC(C)=O)[C@H](C)O6)[C@H](O)[C@@H](C)O4)[C@H](O)[C@@H](C)O3)[C@H]([C@H](OC)C(=O)[C@@H](O)[C@@H](C)O)C5)O[C@H](C)[C@@H]2OC(C)=O)O[C@@H]1C` [chromomycin A3]: the IC50 amounted to 148 nM in experiment [4]; 37 nM in experiment [1] (setting [7]); 36 nM in experiment [2]; 12 nM in experiment [3]; 394 nM in experiment [6] (setting [7]).

`COc1cccc2c1C(=O)c1c(O)c3c(c(O)c1C2=O)C[C@@](O)(C(=O)CO)C[C@@H]3O[C@H]1C[C@H](N)[C@@H](O)[C@H](C)O1` [epirubicin hydrochloride]: the values for the IC50 in experiment [4] (setting [7]), in experiment [2] and in experiment [3] were 774 nM, 654 nM and 19 nM, respectively.

Regarding `O=C1c2ccccc2-[n+]2ccc3c([nH]c4ccccc43)c21` [fascaplycin, Fascaplysin], the IC50 in experiment [5] was 600 to 1200 nM; in experiment [4] (Homo sapiens, THP-1, 24 h) it was 425 nM; in experiment [1] (Homo sapiens, THP-1, 24 h) it was 215 nM; in experiment [3], 510 nM; in experiment [6] (Homo sapiens, THP-1, 24 h), 701 nM.

`O=C(CC1NCCCC1O)Cn1cnc2cc(Br)c(Cl)cc2c1=O` (stereo not drawn) [halofuginone]: the IC50 was 10 to 100 nM in experiment [5]; 919 nM in experiment [4] (Homo sapiens, THP-1, 24 h); 9 nM in experiment [1] (setting [8]); 641 nM in experiment [2] (Homo sapiens); 81 nM in experiment [3].

As for `O=C1[O][Pt]2([NH][C@@H]3CCCC[C@H]3[NH]2)[O]C1=O` [oxalipatin, Oxaliplatin], the IC50 in experiment [4] (setting [7]) amounted to 107 nM.

In the case of `Oc1ccc(C=Cc2cc(O)cc(O)c2)cc1` [resveratrol], the IC50 in experiment [2] (Homo sapiens) was 507 nM.

Consider `CC[C@@]1(O)C(=O)OCc2c1cc1n(c2=O)Cc2cc3c(CN(C)C)c(O)ccc3nc2-1` [topotemay, Topotecan], for which the IC50 in experiment [4] (setting [7]) worked out at 509 nM; in experiment [1] (setting [7]), 514 nM; in experiment [2] it was 257 nM; in experiment [3], 51 nM.

On to Mithramycin A, for which the IC50 amounted to 18 nM in experiment [1] (setting [7]), 33 nM in experiment [2], 19 nM in experiment [3] and 570 nM in experiment [6] (setting [7]).

Take rapamycin: the IC50 in experiment [4] (setting [7]) is 0.48 nM; in experiment [1] (setting [7]), 0.05 nM; in experiment [2] it was 4 nM; in experiment [6] (setting [7]), 51 nM.
